The results in this text go back to BindingDB's records for doi:10.1016/j.bmc.2010.11.049 (Bryn Mawr College, 2011).

Some results are limits rather than exact numbers.

This experiment in a line: Inhibition of HIV1 YU2 gp120 binding to CD4 expressing Cf2Th-CD4/CCR5 cells assessed as inhibition of viral infection after 48 hrs.

On to `O=C(NCc1ccc2c(c1)OCO2)C(=O)Nc1ccc(Br)cc1` [N1-(benzo[d][1,3]dioxol-5-ylmethyl)-N2-(4-bromophenyl)oxalamide], for which the concentration for half-maximal inhibition (IC50) is over 100 µM.

Turning to `O=C(Nc1ccc(Cl)cc1)c1cc(-n2cnnc2)n[nH]1` [N-(4-chlorophenyl)-5-(4H-1,2,4-triazol-4-yl)-1H-pyrazole-3-carboxamide], the IC50 is over 100 µM.

For the compound `Cc1cc(OCC(=O)NCc2nnc[nH]2)ccc1Cl` [N-((1H-1,2,4-triazol-3-yl)methyl)-2-(4-chloro-3-methylphenoxy)acetamide], the IC50 was over 100 µM.

As to `CC1Sc2cc(C(=O)NC3CC(C)(C)NC(C)(C)C3)ccc2NC1=O` (stereo not drawn) [2,2,6,6-tetramethyl-4-(2-methyl-3-oxo-3,4-dihydro-2H-benzo[b][1,4]thiazine-7-carboxamido)piperidinium], the IC50 is over 100 µM.

As for `CC1(C)CC(NC(=O)C(=O)Nc2ccc(Cl)c(F)c2)CC(C)(C)O1` [N1-(4-chloro-3-fluorophenyl)-N2-(2,2,6,6-tetramethyltetrahydro-2H-pyran-4-yl)oxalamide], the IC50 is over 100 µM.

As for `O=C(Nc1ccc(Cl)c(F)c1)C(=O)NC1CCN(C(=O)c2ccccc2)CC1` [N1-(1-benzoylpiperidin-4-yl)-N2-(4-chloro-3-fluorophenyl)oxalamide], the IC50 was over 100 µM.

On to `O=C(CSc1[nH]c(=O)nc2c1CCCC2)Nc1ccc(Cl)cc1` [N-(4-chlorophenyl)-2-(2-oxo-1,2,5,6,7,8-hexahydroquinazolin-4-ylthio)acetamide], for which the IC50 is over 100 µM.

As to `CC(CC(=O)Nc1ccc(Br)cc1)Nc1cccc(CO)c1` (stereo not drawn) [N-(4-bromophenyl)-3-(3-(hydroxymethyl)phenylamino)butanamide], the IC50 is over 100 µM.

On to `CC1(C)CC(NC(=O)C(=O)Nc2ccc3ccccc3c2)CC(C)(C)N1` [N1-(naphthalen-2-yl)-N2-(2,2,6,6-tetramethylpiperidin-4-yl)oxalamide], for which the IC50 was over 100 µM.

`CC1(C)CC(NC(=O)C(=O)Nc2ccc(Cl)c(OCc3ccccc3)c2)CC(C)(C)N1` [N1-(3-(benzyloxy)-4-chlorophenyl)-N2-(2,2,6,6-tetramethylpiperidin-4-yl)oxalamide]: the 50% inhibitory concentration (IC50) is over 100 µM.

For `CN(C)C(CNC(=O)C(=O)Nc1ccc(Cl)c(F)c1)N1CCCC1` (stereo not drawn) [N1-(4-chloro-3-fluorophenyl)-N2-(2-(dimethylamino)-2-(pyrrolidin-1-yl)ethyl)oxalamide], the IC50 was over 100 µM.

Turning to `CC1(C)C2CCC1(C)C(NC(=O)C(=O)Nc1ccc(Cl)c(F)c1)C2` (stereo not drawn) [N1-(4-chloro-3-fluorophenyl)-N2-(1,7,7-trimethylbicyclo[2.2.1]heptan-2-yl)oxalamide], the IC50 is over 100 µM.

For `CC1(C)O[C@@H](CN)[C@H](CNC(=O)C(=O)Nc2ccc(Cl)c(F)c2)O1` [N1-(((4S,5S)-5-(aminomethyl)-2,2-dimethyl-1,3-dioxolan-4-yl)methyl)-N2-(4-chloro-3-fluorophenyl)oxalamide], the IC50 stood at 76.6 µM.

Take `CCNC(=S)N1CCN(CC(=O)Nc2ccc(Br)cc2)CC1` [4-(2-(4-bromophenylamino)-2-oxoethyl)-N-ethylpiperazine-1-carbimidothioic acid]: the IC50 is over 100 µM.

In the case of `O=C(Nc1ccnc(=O)[nH]1)c1sc2cc(Cl)ccc2c1Cl` [3,6-dichloro-N-(2-oxo-1,2-dihydropyrimidin-4-yl)benzo[b]thiophene-2-carboxamide], the IC50 is over 100 µM.

As for `CN(C(=O)C(=O)NC1CC(C)(C)NC(C)(C)C1)c1ccc(Cl)cc1` [N1-(4-chlorophenyl)-N1-methyl-N2-(2,2,6,6-tetramethylpiperidin-4-yl)oxalamide], the IC50 is over 100 µM.

As to `O=C(NC[C@@H]1COC2(CCCC2)O1)C(=O)Nc1ccc(Cl)cc1` [(R)-N1-(1,4-dioxaspiro[4.4]nonan-2-ylmethyl)-N2-(4-chlorophenyl)oxalamide], the concentration for half-maximal inhibition (IC50) was over 100 µM.

`CN1CCC(CNC(=O)C(=O)Nc2ccc(Cl)c(F)c2)(N(C)C)CC1` [N1-(4-chloro-3-fluorophenyl)-N2-((4-(dimethylamino)-1-methylpiperidin-4-yl)methyl)oxalamide]: the IC50 was over 100 µM.

Regarding `O=C(Nc1ccc(Cl)c(F)c1)C(=O)N[C@@H]1CCN(Cc2ccccc2)C1` [(R)-N1-(1-benzylpyrrolidin-3-yl)-N2-(4-chloro-3-fluorophenyl)oxalamide], the 50% inhibitory concentration (IC50) came out at 58.5 µM.

For the compound `CNS(=O)(=O)Cc1ccc(CNC(=O)C(=O)Nc2ccc(Cl)c(F)c2)cc1` [N1-(4-chloro-3-fluorophenyl)-N2-(4-(N-methylsulfamoylmethyl)benzyl)oxalamide], the IC50 is over 100 µM.

For the compound `COc1cccc(N[C@@H](C)C(=O)Nc2ccc(Br)cc2)c1` [(S)-N-(4-bromophenyl)-2-(3-methoxyphenylamino)propanamide], the IC50 was over 100 µM.

With `N=c1oc2cc(O)ccc2cc1C(=O)Nc1ccc(Cl)cc1` [N-(4-chlorophenyl)-7-hydroxy-2-imino-2H-chromene-3-carboxamide], the IC50 is over 100 µM.

Regarding `CC1(C)CC(NCC(=O)Nc2ccc(Cl)c(F)c2)CC(C)(C)N1` [N-(4-chloro-3-fluorophenyl)-2-(2,2,6,6-tetramethylpiperidin-4-ylamino)acetamide], the IC50 was over 100 µM.

Regarding `COc1cc(Cl)ccc1NC(=O)C(=O)NC1CC(C)(C)NC(C)(C)C1` [N1-(4-chloro-2-methoxyphenyl)-N2-(2,2,6,6-tetramethylpiperidin-4-yl)oxalamide], the IC50 was over 100 µM.

With `CN1C(C)(C)CC(NC(=O)C(=O)Nc2ccc(Cl)c(F)c2)CC1(C)C` [N1-(4-chloro-3-fluorophenyl)-N2-(1,2,2,6,6-pentamethylpiperidin-4-yl)oxalamide], the IC50 is 65.8 µM.

In the case of `CC(NC(=O)C(=O)Nc1ccc(Cl)c(F)c1)c1ccc2c(c1)NC(=O)CO2` (stereo not drawn) [N1-(4-chloro-3-fluorophenyl)-N2-(1-(3-oxo-3,4-dihydro-2H-benzo[b][1,4]oxazin-6-yl)ethyl)oxalamide], the IC50 is over 100 µM.

Turning to `O=C(Nc1ccc2c(c1)C(=O)NC2=O)c1ccc(Cl)c(Cl)c1` [3,4-dichloro-N-(1,3-dioxoisoindolin-5-yl)benzamide], the IC50 was over 100 µM.

For the compound `CN1CCCC(NC(=O)C(=O)Nc2ccc(Cl)c(F)c2)C1` (stereo not drawn) [N1-(4-chloro-3-fluorophenyl)-N2-(1-methylpiperidin-3-yl)oxalamide], the IC50 is over 100 µM.

Regarding `CC1(C)CC(CNC(=O)C(=O)Nc2ccc(Cl)c(F)c2)CC(C)(C)N1` [N1-(4-chloro-3-fluorophenyl)-N2-((2,2,6,6-tetramethylpiperidin-4-yl)methyl)oxalamide], the IC50 came to 33 µM.

For the compound `C[C@@H](Sc1nc(N)cc(=O)[nH]1)C(=O)Nc1ccc(Cl)cc1` [(R)-2-(6-amino-4-oxo-1,4-dihydropyrimidin-2-ylthio)-N-(4-chlorophenyl)propanamide], the IC50 was over 100 µM.

Take `CCn1ncnc1C(C)NC(=O)C(=O)Nc1ccc(Cl)c(F)c1` (stereo not drawn) [N1-(4-chloro-3-fluorophenyl)-N2-(1-(1-ethyl-1H-1,2,4-triazol-5-yl)ethyl)oxalamide]: the IC50 was over 100 µM.

As for `CC(C)N1CCCCC1CCNC(=O)C(=O)Nc1ccc(Cl)c(F)c1` (stereo not drawn) [N1-(4-chloro-3-fluorophenyl)-N2-(2-(1-isopropylpiperidin-2-yl)ethyl)oxalamide], the IC50 was found to be 27 µM.

For `O=C(NCC1CCNCC1)C(=O)Nc1ccc(Cl)c(F)c1` [N1-(4-chloro-3-fluorophenyl)-N2-(piperidin-4-ylmethyl)oxalamide], the half-inhibitory concentration (IC50) is over 100 µM.
